According to PubChem BioAssay AID1963837 (Molecular Pharmacology Branch, DTP, NCI, 2024):

system: 843126-344-R-J1-PDC complex spheroid viability; experiment: Anticancer human tumor 843126-344-R-J1-PDC patient-derived melanoma cell line growth inhibition [POLQ]; details: curve of first compound; second compound 10 µM
In short: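 Three-cell-type spheroids modelling solid tumor plus stroma served as the readout system; POL inhibitors were tested individually and in combination, concentration ranges set by clinical Cmax where known.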
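Wherever viability, T/C is given: spheroids exposed to drugs for seven days before readout.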

| Structure (SMILES) | IC50 [µM] |
| --- | --- |
| CCc1c2c(nc3ccc(O)cc13)-c1cc3c(c(=O)n1C2)COC(=O)[C@]3(O)CC + Nc1ccc(C#CCN(C(=O)Cc2ncc(C(F)(F)F)cc2C(F)(F)F)c2ccc(F)cc2)nn1 | > 1 |
| COc1cccc(OCCCN)c1-c1cc(Nc2cnc(C#N)cn2)n[nH]1 + Nc1ccc(C#CCN(C(=O)Cc2ncc(C(F)(F)F)cc2C(F)(F)F)c2ccc(F)cc2)nn1 | 0.0542 |
| Nc1ccn(C2OC(CO)C(O)C2(F)F)c(=O)n1 (configuration not stated) + Nc1ccc(C#CCN(C(=O)Cc2ncc(C(F)(F)F)cc2C(F)(F)F)c2ccc(F)cc2)nn1 | < 0.0316 |
| O=C(c1cc(Cc2n[nH]c(=O)c3ccccc23)ccc1F)N1CCN(C(=O)C2CC2)CC1 + Nc1ccc(C#CCN(C(=O)Cc2ncc(C(F)(F)F)cc2C(F)(F)F)c2ccc(F)cc2)nn1 | > 10 |
| O=c1[nH]cc(F)c(=O)[nH]1 + Nc1ccc(C#CCN(C(=O)Cc2ncc(C(F)(F)F)cc2C(F)(F)F)c2ccc(F)cc2)nn1 | > 10 |

same assay, conditions: second compound 0.0316 µM; first compound 0.00316 µM; stronger effect = lower value

| Structure (SMILES) | viability, T/C [%] |
| --- | --- |
| C=CCn1c(=O)c2cnc(Nc3ccc(N4CCN(C)CC4)cc3)nc2n1-c1cccc(C(C)(C)O)n1 + Nc1ccc(C#CCN(C(=O)Cc2ncc(C(F)(F)F)cc2C(F)(F)F)c2ccc(F)cc2)nn1 | 93.9 |
| CCc1c2c(nc3ccc(O)cc13)-c1cc3c(c(=O)n1C2)COC(=O)[C@]3(O)CC + Nc1ccc(C#CCN(C(=O)Cc2ncc(C(F)(F)F)cc2C(F)(F)F)c2ccc(F)cc2)nn1 | 68.2 |
| COc1cccc(OCCCN)c1-c1cc(Nc2cnc(C#N)cn2)n[nH]1 + Nc1ccc(C#CCN(C(=O)Cc2ncc(C(F)(F)F)cc2C(F)(F)F)c2ccc(F)cc2)nn1 | 92 |

same assay, conditions: second compound 0.0316 µM; first compound 0.01 µM; stronger effect = lower value

| Structure (SMILES) | viability, T/C [%] |
| --- | --- |
| C=CCn1c(=O)c2cnc(Nc3ccc(N4CCN(C)CC4)cc3)nc2n1-c1cccc(C(C)(C)O)n1 + Nc1ccc(C#CCN(C(=O)Cc2ncc(C(F)(F)F)cc2C(F)(F)F)c2ccc(F)cc2)nn1 | 81.2 |
| CCc1c2c(nc3ccc(O)cc13)-c1cc3c(c(=O)n1C2)COC(=O)[C@]3(O)CC + Nc1ccc(C#CCN(C(=O)Cc2ncc(C(F)(F)F)cc2C(F)(F)F)c2ccc(F)cc2)nn1 | 60 |
| COc1cccc(OCCCN)c1-c1cc(Nc2cnc(C#N)cn2)n[nH]1 + Nc1ccc(C#CCN(C(=O)Cc2ncc(C(F)(F)F)cc2C(F)(F)F)c2ccc(F)cc2)nn1 | 78.5 |

same assay, conditions: second compound 0.0316 µM; first compound 0.0316 µM; stronger effect = lower value

| Structure (SMILES) | viability, T/C [%] |
| --- | --- |
| C=CCn1c(=O)c2cnc(Nc3ccc(N4CCN(C)CC4)cc3)nc2n1-c1cccc(C(C)(C)O)n1 + Nc1ccc(C#CCN(C(=O)Cc2ncc(C(F)(F)F)cc2C(F)(F)F)c2ccc(F)cc2)nn1 | 98.9 |
| CCc1c2c(nc3ccc(O)cc13)-c1cc3c(c(=O)n1C2)COC(=O)[C@]3(O)CC + Nc1ccc(C#CCN(C(=O)Cc2ncc(C(F)(F)F)cc2C(F)(F)F)c2ccc(F)cc2)nn1 | 63.9 |
| COc1cccc(OCCCN)c1-c1cc(Nc2cnc(C#N)cn2)n[nH]1 + Nc1ccc(C#CCN(C(=O)Cc2ncc(C(F)(F)F)cc2C(F)(F)F)c2ccc(F)cc2)nn1 | 53.1 |
| Nc1ccn(C2OC(CO)C(O)C2(F)F)c(=O)n1 (configuration not stated) + Nc1ccc(C#CCN(C(=O)Cc2ncc(C(F)(F)F)cc2C(F)(F)F)c2ccc(F)cc2)nn1 | 36.5 |
| O=C(c1cc(Cc2n[nH]c(=O)c3ccccc23)ccc1F)N1CCN(C(=O)C2CC2)CC1 + Nc1ccc(C#CCN(C(=O)Cc2ncc(C(F)(F)F)cc2C(F)(F)F)c2ccc(F)cc2)nn1 | 98.2 |
| O=c1[nH]cc(F)c(=O)[nH]1 + Nc1ccc(C#CCN(C(=O)Cc2ncc(C(F)(F)F)cc2C(F)(F)F)c2ccc(F)cc2)nn1 | 101 |

same assay, conditions: second compound 0.0316 µM; first compound 0.1 µM; stronger effect = lower value

| Structure (SMILES) | viability, T/C [%] |
| --- | --- |
| C=CCn1c(=O)c2cnc(Nc3ccc(N4CCN(C)CC4)cc3)nc2n1-c1cccc(C(C)(C)O)n1 + Nc1ccc(C#CCN(C(=O)Cc2ncc(C(F)(F)F)cc2C(F)(F)F)c2ccc(F)cc2)nn1 | 110 |
| CCc1c2c(nc3ccc(O)cc13)-c1cc3c(c(=O)n1C2)COC(=O)[C@]3(O)CC + Nc1ccc(C#CCN(C(=O)Cc2ncc(C(F)(F)F)cc2C(F)(F)F)c2ccc(F)cc2)nn1 | 64.7 |
| COc1cccc(OCCCN)c1-c1cc(Nc2cnc(C#N)cn2)n[nH]1 + Nc1ccc(C#CCN(C(=O)Cc2ncc(C(F)(F)F)cc2C(F)(F)F)c2ccc(F)cc2)nn1 | 47.3 |
| Nc1ccn(C2OC(CO)C(O)C2(F)F)c(=O)n1 (configuration not stated) + Nc1ccc(C#CCN(C(=O)Cc2ncc(C(F)(F)F)cc2C(F)(F)F)c2ccc(F)cc2)nn1 | 35.5 |
| O=C(c1cc(Cc2n[nH]c(=O)c3ccccc23)ccc1F)N1CCN(C(=O)C2CC2)CC1 + Nc1ccc(C#CCN(C(=O)Cc2ncc(C(F)(F)F)cc2C(F)(F)F)c2ccc(F)cc2)nn1 | 73.7 |
| O=c1[nH]cc(F)c(=O)[nH]1 + Nc1ccc(C#CCN(C(=O)Cc2ncc(C(F)(F)F)cc2C(F)(F)F)c2ccc(F)cc2)nn1 | 94.7 |

same assay, conditions: second compound 0.0316 µM; first compound 0.316 µM; stronger effect = lower value

| Structure (SMILES) | viability, T/C [%] |
| --- | --- |
| C=CCn1c(=O)c2cnc(Nc3ccc(N4CCN(C)CC4)cc3)nc2n1-c1cccc(C(C)(C)O)n1 + Nc1ccc(C#CCN(C(=O)Cc2ncc(C(F)(F)F)cc2C(F)(F)F)c2ccc(F)cc2)nn1 | 101 |
| CCc1c2c(nc3ccc(O)cc13)-c1cc3c(c(=O)n1C2)COC(=O)[C@]3(O)CC + Nc1ccc(C#CCN(C(=O)Cc2ncc(C(F)(F)F)cc2C(F)(F)F)c2ccc(F)cc2)nn1 | 58.8 |
| COc1cccc(OCCCN)c1-c1cc(Nc2cnc(C#N)cn2)n[nH]1 + Nc1ccc(C#CCN(C(=O)Cc2ncc(C(F)(F)F)cc2C(F)(F)F)c2ccc(F)cc2)nn1 | 40 |
| Nc1ccn(C2OC(CO)C(O)C2(F)F)c(=O)n1 (configuration not stated) + Nc1ccc(C#CCN(C(=O)Cc2ncc(C(F)(F)F)cc2C(F)(F)F)c2ccc(F)cc2)nn1 | 38.9 |
| O=C(c1cc(Cc2n[nH]c(=O)c3ccccc23)ccc1F)N1CCN(C(=O)C2CC2)CC1 + Nc1ccc(C#CCN(C(=O)Cc2ncc(C(F)(F)F)cc2C(F)(F)F)c2ccc(F)cc2)nn1 | 93.5 |
| O=c1[nH]cc(F)c(=O)[nH]1 + Nc1ccc(C#CCN(C(=O)Cc2ncc(C(F)(F)F)cc2C(F)(F)F)c2ccc(F)cc2)nn1 | 92.9 |

same assay, conditions: second compound 0.0316 µM; first compound 1 µM; stronger effect = lower value

| Structure (SMILES) | viability, T/C [%] |
| --- | --- |
| C=CCn1c(=O)c2cnc(Nc3ccc(N4CCN(C)CC4)cc3)nc2n1-c1cccc(C(C)(C)O)n1 + Nc1ccc(C#CCN(C(=O)Cc2ncc(C(F)(F)F)cc2C(F)(F)F)c2ccc(F)cc2)nn1 | 81.9 |
| CCc1c2c(nc3ccc(O)cc13)-c1cc3c(c(=O)n1C2)COC(=O)[C@]3(O)CC + Nc1ccc(C#CCN(C(=O)Cc2ncc(C(F)(F)F)cc2C(F)(F)F)c2ccc(F)cc2)nn1 | 49.1 |
| COc1cccc(OCCCN)c1-c1cc(Nc2cnc(C#N)cn2)n[nH]1 + Nc1ccc(C#CCN(C(=O)Cc2ncc(C(F)(F)F)cc2C(F)(F)F)c2ccc(F)cc2)nn1 | 35.5 |
